# Laboratory results as given in patent publication US8461119B2, “Agents that modulate Eph receptor activity” (The Burnham Institute, priority 2002, dated 2013).
# “Also recorded” adds a separate entry of the source. Where two headings read alike, the source gives them in different places.
# Columns and labels:
# [1] = system: EphB4; test: Binding specificity of synthetic peptides; details: immobilized synthetic peptide
# Text: (§3) Bound Eph receptors were detected with anti-human Fc antibody conjugated to alkaline phosphatase (AP) (Promega, Madison, Wis.). […] Substrates were 2,2′-azino-bis(3-ethylbenzthiazoline-6-sulfonic acid) for horseradish peroxidase and p-nitrophenyl phosphate for AP.
# [2] = system: EphB4; test: Binding specificity of phage clones on Eph receptor-coated plates; details: phage clones displaying the peptides
# Text: (§4) Phage binding to Eph receptor-coated plates was quantified using an anti-phage antibody conjugated to horseradish peroxidase (M13 phage detection kit, Amersham Pharmacia Biotech., Piscataway, N.J.).
# [3] = system: EphA7; test: Binding selectivity of phage clones isolated on EphA7
# Experimental: (§1) Alternatively, peptides and phage were co-incubated together.
# (§2) In this example additional phage panning experiments were performed to identify peptides that bind to EphA5 and EphA7 (FIG. 18A). EphA5 and EphA7 are two EphA receptors that are closely related to EphA4 but are differentially expressed in the developing and adult nervous system (Ellis, J. et al. 1995 Mechanisms of Development 52:319-341; Mori, T. et al 1995 Brain Res Mol Brain Res 34:154-160; Olivieri, G. & Miescher, G. C. 1999 J Histochem Cytochem 47:855-861; Zhang, J. H. et al 1997 Brain Res Mol Brain Res 47:202-214). Three different peptide sequences that bind each receptor were identified.
# [4] = system: EphA5; test: Binding selectivity of phage clones isolated on EphA5
# Experimental: as §1, §2
# [5] = target: T1, EphA4 (Mus musculus, UniProt Q03137); test: Ephrin-A3 Fc induced EphA4 tyrosine phosphorylation in hippocampal slices; assay type: cell-based; details: micromolar peptide
# T1 construct: antagonize ephrin-A3-induced tyrosine phosphorylation of endogenous EphA4; from tissue; host or cells: mouse hippocampal slices
# [6] = target: T2, EphA4 (Homo sapiens, UniProt P54764); test: Ephrin-AP binding to Eph receptor-coated wells in presence of peptide; details: for Antagonism of ephrin-A5 binding to EphA4: ephrin-A5 AP
# T2 construct: immobilized EphA4 receptor extracellular domain fused to a human Fc region
# Experimental: Diluted cell culture supernatants containing ephrin-A5-AP and ephrin-A6-AP were co-incubated with peptides in microtiter wells coated with EphA2 Fc or EphA4 Fc. Ephrins remaining bound after washing were detected by measuring AP activity.
# [7] = target: T2, EphA4; test: Binding selectivity of phage clones isolated on EphA4; details: compared to other EphA or EphB4 receptors
# Text: as §4
# In this example phage display was used to identify peptides that bind to an EphA4 receptor. An M13 phage library displaying random 12-mer peptides was panned on the immobilized EphA4 receptor extracellular domain fused to a human Fc region (FIG. 12A). The phage clones remaining bound to EphA4 were eluted with a low pH solution and amplified.
# [8] = target: T3, EphA2 (Mus musculus, UniProt Q03145); test: Ephrin-AP binding to Eph receptor-coated wells in presence of peptide; details: ephrin-A5-AP, ephrin-A6-AP
# T3 construct: purchased R&D Systems
# Target sequence in this assay (Q03145 with tags, fused parts or gaps limits assumed): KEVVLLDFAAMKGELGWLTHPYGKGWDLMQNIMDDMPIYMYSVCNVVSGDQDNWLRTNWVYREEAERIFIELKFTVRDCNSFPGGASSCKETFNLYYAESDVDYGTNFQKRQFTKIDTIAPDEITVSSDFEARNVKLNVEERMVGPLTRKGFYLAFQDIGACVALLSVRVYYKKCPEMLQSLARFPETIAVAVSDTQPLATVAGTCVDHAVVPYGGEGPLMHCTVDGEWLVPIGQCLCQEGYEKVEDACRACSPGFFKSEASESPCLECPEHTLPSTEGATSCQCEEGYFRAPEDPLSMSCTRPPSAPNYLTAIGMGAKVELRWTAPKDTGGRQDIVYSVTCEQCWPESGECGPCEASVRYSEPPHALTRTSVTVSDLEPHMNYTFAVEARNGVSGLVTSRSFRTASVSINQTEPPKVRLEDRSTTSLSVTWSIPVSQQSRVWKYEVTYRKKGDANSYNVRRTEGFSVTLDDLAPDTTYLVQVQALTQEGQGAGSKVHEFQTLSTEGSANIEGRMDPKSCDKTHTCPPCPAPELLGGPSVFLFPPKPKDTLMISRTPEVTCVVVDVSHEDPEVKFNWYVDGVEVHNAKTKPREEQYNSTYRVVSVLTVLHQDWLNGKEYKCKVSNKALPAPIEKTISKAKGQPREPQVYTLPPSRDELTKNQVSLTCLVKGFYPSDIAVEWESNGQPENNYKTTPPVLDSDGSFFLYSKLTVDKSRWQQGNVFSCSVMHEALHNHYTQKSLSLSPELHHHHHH
# Experimental: Ephrin binding to Eph receptor-coated plates was quantified using alkaline phosphatase (AP) fusion proteins of ephrin-A5 and ephrin-A6 (plasmids encoding these AP-fusions are described above). Diluted cell culture supernatants containing ephrin-A5-AP and ephrin-A6-AP were co-incubated with peptides in microtiter wells coated with EphA2 Fc or EphA4 Fc. Ephrins remaining bound after washing were detected by measuring AP activity.
# [9] = target: T3, EphA2; test: Immobilized biotinylated synthetic peptide capturing Eph receptor Fc (ELISA); assay type: binding; details: biotinylated peptide on streptavidin-coated wells
# Target sequence in this assay (Q03145 with tags, fused parts or gaps limits assumed): as above
# Text: as §3
# [10] = system: EphA receptors; test: as above; assay type: binding; details: Fc fusion proteins of EphA receptors
# Text: as §3
# [11] = target: T3, EphA2; test: Peptide competition with phage clones on immobilized EphA2 Fc; assay type: binding
# Target sequence in this assay (Q03145 26-538 limits assumed): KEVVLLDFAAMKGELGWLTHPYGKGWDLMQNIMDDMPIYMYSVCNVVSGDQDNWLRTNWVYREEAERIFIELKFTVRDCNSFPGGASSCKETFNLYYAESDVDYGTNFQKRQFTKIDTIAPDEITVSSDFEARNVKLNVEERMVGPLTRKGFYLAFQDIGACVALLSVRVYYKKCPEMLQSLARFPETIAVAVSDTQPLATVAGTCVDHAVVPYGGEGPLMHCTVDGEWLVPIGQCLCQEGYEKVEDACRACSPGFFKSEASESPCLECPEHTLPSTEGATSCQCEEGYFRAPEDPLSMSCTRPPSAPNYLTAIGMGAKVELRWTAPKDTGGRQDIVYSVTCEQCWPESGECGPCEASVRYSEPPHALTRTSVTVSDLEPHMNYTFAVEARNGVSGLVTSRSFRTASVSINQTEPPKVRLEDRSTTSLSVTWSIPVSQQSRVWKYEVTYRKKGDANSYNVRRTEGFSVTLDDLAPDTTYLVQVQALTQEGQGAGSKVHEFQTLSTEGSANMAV
# Experimental: A histidine-tagged mouse EphA2 Fc fusion protein (R&D Systems, Minneapolis, Minn.) was incubated overnight at 4° C. in nickel-nitrilotriacetic acid (Ni-NTA)-coated ELISA plates at concentrations of 1-10 μg/ml in Tris-buffered saline (TBS) (150 mM NaCl, 50 mM Tris-HCl, pH 7.5). Wells were blocked with 0.5% bovine serum albumin (BSA) in TBS, and rinsed with binding buffer (TBS, 1 mM CaCl2, 0.1% Tween 20).
# For peptide competition assays with phage clones, Ni-NTA microtiter wells coated with EphA2 Fc were incubated for 1 hour at room temperature with phage clones diluted between 1:600 and 1:9,000 in binding buffer (100 μl/well). Unbound phage were washed away and competing peptides were added for 1 hour. Alternatively, peptides and phage were co-incubated together.
# [12] = target: T2, EphA4; test: Binding specificity of synthetic peptides; details: compared to other EphA and EphB receptors
# Text: as §3
# [13] = system: neural crest cells; test: Neural crest cell migration assay in chick trunk explants; assay type: cell-based; details: 24 hours, 13 μM KYL peptide or 10 μg/ml EphA4-Fc
# Experimental: In this example to address whether the EphA4-binding peptides can inhibit endogenous ephrin-EphA4 physiological function, a neural crest cell migration assay (McLennan, R. & Krull, C. E. 2002 Gene Expr 10:295-305) was utilized. […] The migration of neural crest cells was determined by staining for HNK-1 for neural crest cells and ephrin-B1 to label the caudal sclerotome. […] Neural crest cells migrated properly into the rostral sclerotome in explants treated with control Fc.
# [14] = system: EphB receptors; test: Immobilized biotinylated synthetic peptide capturing Eph receptor Fc (ELISA); assay type: binding
# Text: as §3
# [15] = system: MAP kinase; test: MAP kinase phosphorylation in HUVE cells (immunoblot); assay type: cell-based, human
# Text: Cell lysates were used to immunoprecipitate EphA2 as described above or probed by immunoblotting with anti-phospho-p44/p42 MAPK antibody (Cell Signaling Technology, Beverly, Mass.) followed by an anti-mouse IgG peroxidase-conjugated antibody (Arnersham) and re-probed with an anti-ERK2 antibody (Santa Cruz Biotechnology, Santa Cruz, Calif.) followed by a secondary anti-rabbit IgG peroxidase-conjugated antibody (Amersham). Erk2 (p42 MAP kinase) is the major phosphorylated form present. EphA2 was immunoprecipitated (IP) and probed by immunoblotting with anti-phosphotyrosine (PTyr) or anti-EphA2 antibodies.
# T1 sequence (Q03137 20-986): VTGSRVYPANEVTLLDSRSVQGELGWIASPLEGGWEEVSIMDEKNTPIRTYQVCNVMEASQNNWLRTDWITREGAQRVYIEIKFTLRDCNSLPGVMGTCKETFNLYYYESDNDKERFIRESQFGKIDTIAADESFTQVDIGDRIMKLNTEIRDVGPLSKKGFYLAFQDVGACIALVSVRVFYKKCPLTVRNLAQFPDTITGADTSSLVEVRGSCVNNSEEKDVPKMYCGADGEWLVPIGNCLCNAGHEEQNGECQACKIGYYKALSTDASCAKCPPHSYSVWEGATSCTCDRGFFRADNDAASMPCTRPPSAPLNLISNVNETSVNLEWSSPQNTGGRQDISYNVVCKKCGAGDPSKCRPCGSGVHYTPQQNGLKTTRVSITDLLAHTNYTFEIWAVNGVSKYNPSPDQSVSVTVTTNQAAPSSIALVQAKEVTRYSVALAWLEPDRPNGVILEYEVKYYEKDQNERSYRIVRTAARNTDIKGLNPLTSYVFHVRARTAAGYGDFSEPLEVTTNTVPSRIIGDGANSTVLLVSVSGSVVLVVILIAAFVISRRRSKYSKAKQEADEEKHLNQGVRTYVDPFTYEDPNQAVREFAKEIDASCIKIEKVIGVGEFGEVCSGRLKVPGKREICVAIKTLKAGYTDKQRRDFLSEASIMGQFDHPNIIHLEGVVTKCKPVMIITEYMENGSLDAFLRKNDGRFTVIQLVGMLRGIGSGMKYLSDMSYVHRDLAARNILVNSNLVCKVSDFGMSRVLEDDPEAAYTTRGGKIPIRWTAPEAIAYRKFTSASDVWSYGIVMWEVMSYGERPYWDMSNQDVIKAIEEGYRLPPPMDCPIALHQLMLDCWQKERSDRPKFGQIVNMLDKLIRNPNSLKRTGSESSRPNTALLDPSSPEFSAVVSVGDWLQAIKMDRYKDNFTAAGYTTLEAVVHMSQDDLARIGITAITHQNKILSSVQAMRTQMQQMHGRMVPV
# T2 sequence (P54764 20-547 limits assumed, species assumed): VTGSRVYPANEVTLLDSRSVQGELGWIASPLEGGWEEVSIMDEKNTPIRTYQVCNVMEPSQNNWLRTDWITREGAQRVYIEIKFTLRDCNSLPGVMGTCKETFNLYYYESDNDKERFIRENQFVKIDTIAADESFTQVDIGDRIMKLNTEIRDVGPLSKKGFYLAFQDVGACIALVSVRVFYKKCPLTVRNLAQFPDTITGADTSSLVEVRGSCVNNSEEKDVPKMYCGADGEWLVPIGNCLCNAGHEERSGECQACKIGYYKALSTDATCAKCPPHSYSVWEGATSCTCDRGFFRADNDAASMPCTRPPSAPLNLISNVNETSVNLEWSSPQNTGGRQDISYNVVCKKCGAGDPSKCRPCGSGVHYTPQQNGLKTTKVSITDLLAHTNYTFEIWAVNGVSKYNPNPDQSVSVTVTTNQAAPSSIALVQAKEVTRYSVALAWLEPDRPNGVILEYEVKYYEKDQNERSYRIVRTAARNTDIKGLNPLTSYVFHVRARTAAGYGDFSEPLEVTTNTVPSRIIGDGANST
compound,measurement,setting,value
DALNDWLLFRPW (DAL peptide),EphB4 bound compared to other EphB family receptors,[1],four-fold
same,Binding of phage clones to EphB4 Fc,[2],bound to EphB4 Fc
KHLPFYPHPTSP (EphA7-binding peptide),Binding to further EphA receptors of EphA7-binding peptides,[3],"also binds to EphA3, EphA5, and EphA6"
SVSVGMKPSPRP (SVS peptide),Binding to further EphA receptors of EphA7-binding peptides,[3],also binds to EphA3 and EphA6
WTFPVLWDDKHP (WTF peptide),Binding selectivity of peptides isolated on EphA5,[4],also binds to EphA6
same,Binding selectivity of peptides isolated on EphA5,[4]; listed as WTF,binds to both EphA5 and EphA6
IPWTQHMAMSPM (IPW peptide),Binding of phage clones to EphB4 Fc,[2],bound to EphB4 Fc
SLRDTYMRAKVL (SLR peptide),Binding selectivity of peptides isolated on EphA5,[4],selective binding to this receptor
same,Binding selectivity of peptides isolated on EphA5,[4]; listed as SLR,selectively bind to EphA5
WDCNGPYCHWLG (WDC peptide),Binding selectivity of peptides isolated on EphA5,[4],selective binding to this receptor
same,Binding selectivity of peptides isolated on EphA5,[4]; listed as WDC,selectively bind to EphA5
VTMEAINLAFPG (VTM peptide),Ephrin-A3-induced tyrosine phosphorylation (activation) of endogenous EphA4,[5],antagonize ephrin-A3 induced activation of endogenous EphA4
same,Antagonism of ephrin-A5 binding to EphA4,[6],antagonize ephrin-A5 binding to EphA4 in a concentration-dependent manner
same,Mode of inhibition of ephrin binding,[6]; inhibition curves at different ephrin concentrations,competitively inhibits ephrin binding
same,Binding preference of phage clones for EphA4,[7],preferential binding to EphA4
NHWLDTLFPMHM (EphA4-binding peptide),Binding preference of phage clones for EphA4,[7],preferential binding to EphA4
WASHAPYWPHPP (EphA7-binding peptide),Binding to further EphA receptors of EphA7-binding peptides,[3],also binds to EphA3
A5 peptide: Twelve-mer synthetic peptide corresponding to the A-A′ β-strand of ephrin-A5,Inhibition of ephrin binding to immobilized EphA2,[8],enhanced both phage and ephrin-A5 binding to EphA2
same,Binding of immobilized synthetic peptide to EphA2 Fc,[9],"bind EphA2, albeit more weakly than the YSA peptide"
same,Binding of immobilized synthetic peptide to EphA receptors (other than or including EphA2),[10],bind promiscuously to all EphA receptors
same,Competition of synthetic peptide with phage binding to immobilized EphA2,[11],enhanced both phage and ephrin-A5 binding to EphA2
VADRYAVYWNSSNPR (extended A5 peptide),Binding of immobilized synthetic peptide to EphA2 Fc,[9],exhibits a similar weak binding
KYLPYWPVLSSL (KYL peptide),Ephrin-A3-induced tyrosine phosphorylation (activation) of endogenous EphA4,[5],blocked EphA4 tyrosine phosphorylation at lower concentrations than the APY and VTM peptides; also recorded: antagonize ephrin-A3 induced activation of endogenous EphA4
same,Selectivity of synthetic peptide for EphA4,[12],exhibited some binding to other EphA and EphB receptors
same,Migration of neural crest cells,[13],ectopic migration of neural crest cells into the caudal half-sclerotome
same,Antagonism of ephrin-A5 binding to EphA4,[6],antagonize ephrin-A5 binding to EphA4 in a concentration-dependent manner
same,Peptide concentration that almost completely inhibited ephrin binding,[6]; ephrin-A5 AP binding to EphA4,1 µM
same,Selectivity of block of ephrin-A5 AP binding to EphA4 compared to other EphA receptors,[6]; peptide 50 μM,preferentially
same,Binding preference of phage clones for EphA4,[7],preferential binding to EphA4
SGHQLLLNKMPN (SGH peptide),Binding of phage clones to EphB4 Fc,[2],bound to EphB4 Fc
A3 peptide: Twelve-mer synthetic peptide corresponding to the G-H loop of ephrin-A3,Inhibition of ephrin binding to immobilized EphA2,[8],did not compete with ephrin-A5 for binding to EphA2
same,Binding of immobilized synthetic peptide to EphA2 Fc,[9],"bind EphA2, albeit more weakly than the YSA peptide"
same,Binding of immobilized synthetic peptide to EphA receptors (other than or including EphA2),[10],bind promiscuously to all EphA receptors
same,Competition of synthetic peptide with phage binding to immobilized EphA2,[11],did not inhibit phage binding
CSCC[C@H](NC(=O)[C@H](CCSC)NC(=O)[C@@H]1CCCN1C(=O)[C@@H](NC(=O)[C@H](CO)NC(=O)[C@H](CC(=O)O)NC(=O)[C@@H]1CCCN1C(=O)[C@H](Cc1ccc(O)cc1)NC(=O)[C@H](C)NC(=O)[C@H](CO)NC(=O)[C@@H](N)Cc1ccc(O)cc1)C(C)C)C(=O)N[C@@H](CO)C(=O)O [YSA],Inhibition of ephrin binding to immobilized EphA2,[8],"inhibit, in a concentration dependent manner"
same,Binding of immobilized synthetic peptide to EphA2 Fc,[9],bound to EphA2
same,Binding of synthetic peptide to receptors of the EphB family,[14],lack the ability to bind to receptors of the EphB family
same,Inhibition of A-ephrin binding to immobilized EphA4 by EphA2-binding peptides,"[6]; ephrin-A5-AP, ephrin-A6-AP",not EphA4
same,Binding of immobilized synthetic peptide to EphA receptors (other than or including EphA2),[10],not to other EphA receptors
same,MAP kinase activation,[15],activates a previously described Eph2A signaling pathway that suppresses MAP kinase activation
same,Competition of synthetic peptide with phage binding to immobilized EphA2,[11],competes with SWL phage
